Legend:
ABUTH [1] = test: Herbicidal pre-emergence action (Table A1); type: in vivo, Abutilon theophrasti; conditions: application rate 1280 g/ha; visual grading after ca. 3 weeks vs untreated controls (100% = plants have died off, 0% = as control plants)
Procedure, shortened: (§1)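 In each pot of sandy loam, seed of a single monocot weed species was sown alongside seed of a single dicot weed species, and the seed was covered with soil.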

ECHCG [2] = test: Herbicidal pre-emergence action (Table A2); type: in vivo, Echinochloa crus-galli; conditions: visual grading after ca. 3 weeks
Procedure, shortened: as §1

LOLRI [3] = test: Herbicidal pre-emergence action (Table A3); type: in vivo, Lolium rigidum; conditions: application rate 320 g/ha; visual grading after ca. 3 weeks
Procedure, shortened: as §1

MATIN [4] = test: Herbicidal pre-emergence action (Table A4); type: in vivo, Matricaria inodora; conditions: application rate 1280 g/ha; visual grading after ca. 3 weeks
Procedure, shortened: as §1

SETVI [5] = test: Herbicidal pre-emergence action (Table A5); type: in vivo, Setaria viridis; conditions: application rate 320 g/ha; visual grading after ca. 3 weeks
Procedure, shortened: as §1

STEME = test: Herbicidal pre-emergence action (Table A6); type: in vivo, Stellaria media; conditions: application rate 320 g/ha; visual grading after ca. 3 weeks
Procedure, shortened: as §1

POAAN [6] = test: Herbicidal pre-emergence action (Table A7); type: in vivo, Poa annua; conditions: application rate 320 g/ha; visual grading after ca. 3 weeks
Procedure, shortened: as §1

AMARE = test: Herbicidal pre-emergence action (Table A8); type: in vivo, Amaranthus retroflexus; conditions: application rate 1280 g/ha; visual grading after ca. 3 weeks vs untreated controls (100% = plants have died off, 0% = as control plants)
Procedure, shortened: as §1

ALOMY [7] = test: Herbicidal pre-emergence action (Table A9); type: in vivo, Alopecurus myosuroides; conditions: application rate 1280 g/ha; visual grading after ca. 3 weeks
Procedure, shortened: as §1

KCHSC = test: Herbicidal pre-emergence action (Table A10); type: in vivo, Kochia scoparia; conditions: application rate 320 g/ha; visual grading after ca. 3 weeks
Procedure, shortened: as §1

VERPE [8] = test: Herbicidal pre-emergence action (Table A11); type: in vivo, Veronica persica; conditions: application rate 1280 g/ha; visual grading after ca. 3 weeks
Procedure, shortened: as §1

DIGSA [9] = test: Herbicidal pre-emergence action (Table A12); type: in vivo, Digitaria sanguinalis; conditions: visual grading after ca. 3 weeks
Procedure, shortened: as §1

ECHCG [10] = test: Herbicidal post-emergence action (Table B3); type: in vivo, Echinochloa crus-galli; conditions: application rate 1280 g/ha; rated visually after about 3 weeks
Procedure, shortened: (§2)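 Plants grown from seed in a greenhouse are treated at the one-leaf stage, two to three weeks after sowing. They then stay under optimum growth conditions for about three weeks before herbicidal activity is scored visually on a 0–100% scale against untreated controls.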

SETVI [11] = test: Herbicidal post-emergence action (Table B8); type: in vivo, Setaria viridis; conditions: application rate 1280 g/ha
Procedure, shortened: as §2

DIGSA [12] = test: Herbicidal post-emergence action (Table B12); type: in vivo, Digitaria sanguinalis; conditions: application rate 1280 g/ha
Experimental: Seeds of mono- and dicotyledonous weed plants were placed in plastic pots in sandy loam soil (doubly sown with in each case one species of mono- or dicotyledonous weed plants per pot), covered with soil and cultivated in a greenhouse under controlled growth conditions. 2 to 3 weeks after sowing, the test plants were treated at the one-leaf stage. […] After the test plants had been kept in the greenhouse under optimum growth conditions for about 3 weeks, the activity of the preparations was rated visually in comparison to untreated controls. For example, 100% activity = the plants have died, 0% activity = like control plants.

ABUTH [13] = test: Herbicidal pre-emergence action, section C (Table C1); type: in vivo, Abutilon theophrasti; conditions: application rate 320 g/ha; visual grading after ca. 3 weeks
ALOMY [14] = test: Herbicidal pre-emergence action, section C (Table C2); type: in vivo, Alopecurus myosuroides; conditions: application rate 320 g/ha; visual grading after ca. 3 weeks
DIGSA [15] = test: Herbicidal pre-emergence action, section C (Table C5); type: in vivo, Digitaria sanguinalis; conditions: visual grading after ca. 3 weeks
ECHCG [16] = test: Herbicidal pre-emergence action, section C (Table C6); type: in vivo, Echinochloa crus-galli; conditions: application rate 80 g/ha; visual grading after ca. 3 weeks
LOLRI [17] = test: Herbicidal pre-emergence action, section C (Table C7); type: in vivo, Lolium rigidum; conditions: application rate 320 g/ha; visual grading after ca. 3 weeks
MATIN [18] = test: Herbicidal pre-emergence action, section C (Table C8); type: in vivo, Matricaria inodora; conditions: application rate 320 g/ha; visual grading after ca. 3 weeks
SETVI [19] = test: Herbicidal pre-emergence action, section C (Table C10); type: in vivo, Setaria viridis; conditions: application rate 320 g/ha; visual grading after ca. 3 weeks
VERPE [20] = test: Herbicidal pre-emergence action, section C (Table C11); type: in vivo, Veronica persica; conditions: visual grading after ca. 3 weeks
VIOTR [21] = test: Herbicidal pre-emergence action, section C (Table C12); type: in vivo, Viola tricolor; conditions: application rate 80 g/ha; visual grading after ca. 3 weeks
ZEAMX [22] = test: Pre-emergence effects on crop plants (Table D1); type: in vivo, Zea mays; conditions: crop plant, visual grading after ca. 3 weeks
ABUTH [23] = test: Herbicidal post-emergence action, section E (Table E1); type: in vivo, Abutilon theophrasti; conditions: application rate 320 g/ha; assessed visually after ca. 3 weeks
From the text: (§3) 2 to 3 weeks after sowing, the test plants were sprayed in the single-leaf stage.

VIOTR [24] = test: Herbicidal post-emergence action, section E (Table E10); type: in vivo, Viola tricolor; conditions: application rate 320 g/ha; assessed visually after ca. 3 weeks
From the text: as §3

ZEAMX [25] = test: Post-emergence effects on crop plants (Table F1); type: in vivo, Zea mays; conditions: application rate 320 g/ha, crop plant ZEAMX
From the text: as §3

TRZAS [26] = test: Post-emergence effects on crop plants (Table F2); type: in vivo, Triticum aestivum; conditions: application rate 320 g/ha, crop plant TRZAS
From the text: as §3

ORYZA [27] = test: Post-emergence effects on crop plants (Table F3); type: in vivo, Oryza sativa; conditions: application rate 320 g/ha, crop plant ORYZA
From the text: as §3

ORYZA [28] = test: Pre-emergence effects on crop plants (Table D3); conditions: crop plant; application rate 80 g/ha; visual grading after ca. 3 weeks
ABUTH [29] = test: Herbicidal post-emergence action (Table B1); type: in vivo, Abutilon theophrasti; conditions: application rate 1280 g/ha; treated at one-leaf stage; rated visually after about 3 weeks vs untreated controls (100% = plants have died, 0% = like control plants)
Procedure, shortened: as §2

LOLRI [30] = test: Herbicidal post-emergence action (Table B5); type: in vivo, Lolium rigidum; conditions: application rate 1280 g/ha; rated visually after about 3 weeks
Procedure, shortened: as §2

MATIN [31] = test: Herbicidal post-emergence action (Table B6); type: in vivo, Matricaria inodora; conditions: application rate 1280 g/ha; rated visually after about 3 weeks
Procedure, shortened: as §2

POAAN [32] = test: Herbicidal post-emergence action (Table B7); type: in vivo, Poa annua; conditions: application rate 1280 g/ha
Procedure, shortened: as §2

VERPE [33] = test: Herbicidal post-emergence action (Table B10); type: in vivo, Veronica persica; conditions: application rate 1280 g/ha
Procedure, shortened: as §2

POLCO = test: Herbicidal pre-emergence action, section C (Table C9); type: in vivo, Polygonum convolvulus; conditions: application rate 320 g/ha; visual grading after ca. 3 weeks
TRZAS [34] = test: Pre-emergence effects on crop plants (Table D2); type: in vivo, Triticum aestivum; conditions: crop plant; application rate 320 g/ha; visual grading after ca. 3 weeks
ECHCG [35] = test: Herbicidal post-emergence action, section E (Table E5); type: in vivo, Echinochloa crus-galli; conditions: application rate 320 g/ha; assessed visually after ca. 3 weeks
From the text: as §3

VERPE [36] = test: Herbicidal post-emergence action, section E (Table E9); type: in vivo, Veronica persica; conditions: application rate 320 g/ha; assessed visually after ca. 3 weeks
From the text: as §3

| SMILES | pre-emergence activity against LOLRI (LOLRI [3]) [%] | pre-emergence activity against MATIN (MATIN [4]) [%] | pre-emergence activity against SETVI (SETVI [5]) [%] | pre-emergence activity against STEME (STEME) [%] | pre-emergence activity against POAAN (POAAN [6]) [%] | pre-emergence activity against AMARE (AMARE) [%] | pre-emergence activity against KCHSC (KCHSC) [%] | pre-emergence activity against VERPE (VERPE [8]) [%] | post-emergence activity against ECHCG (ECHCG [10]) [%] | post-emergence activity against DIGSA (DIGSA [12]) [%] | pre-emergence activity against ALOMY (ALOMY [14]) [%] | pre-emergence activity against ECHCG (ECHCG [16]) [%] | pre-emergence activity against LOLRI (LOLRI [17]) [%] | pre-emergence activity against MATIN (MATIN [18]) [%] | pre-emergence activity against SETVI (SETVI [19]) [%] | pre-emergence activity against VIOTR (VIOTR [21]) [%] | post-emergence activity against ABUTH (ABUTH [23]) [%] | post-emergence activity against ZEAMX (ZEAMX [25]) [%] | post-emergence activity against TRZAS (TRZAS [26]) [%] | post-emergence activity against ORYZA (ORYZA [27]) [%] | further results |
| --- | --- | --- | --- | --- | --- | --- | --- | --- | --- | --- | --- | --- | --- | --- | --- | --- | --- | --- | --- | --- | --- |
| O=C1N(Cc2ccccc2F)CCCC12CCN(Cc1c(F)cccc1F)C2=O (racemic) [I-020] | 100 | 90 | 100 | 90 | 100 | 90 | 90 | 90 | 90 | 90 | 100 | 100 | 100 | 80 | 100 | 90 | 80 | 20 | 0 | 0 | pre-emergence activity against ABUTH (ABUTH [1]): 90%; pre-emergence activity against ECHCG (ECHCG [2]; application rate 1280 g/ha): 100%; pre-emergence activity against ALOMY (ALOMY [7]): 90%; pre-emergence activity against DIGSA (DIGSA [9]; application rate 320 g/ha): 100%; post-emergence activity against SETVI (SETVI [11]): 90%; pre-emergence activity against ABUTH (ABUTH [13]): 90%; pre-emergence activity against DIGSA (DIGSA [15]; application rate 80 g/ha): 100%; pre-emergence activity against VERPE (VERPE [20]; application rate 320 g/ha): 90%; pre-emergence activity against ZEAMX (ZEAMX [22]; application rate 80 g/ha): 0%; post-emergence activity against VIOTR (VIOTR [24]): 80%; pre-emergence activity against ORYZA (ORYZA [28]): 0% |
| O=C1N(Cc2cccc(F)c2F)CCCC12CCN(Cc1cccc(F)c1F)C2=O (racemic) [I-025] | 100 | 90 | 100 | 90 | 100 | 90 | 90 | 90 | 90 | 90 | 100 | 100 | 90 | 90 | 90 | 90 | 80 | 0 | 0 | 0 | pre-emergence activity against ECHCG (ECHCG [2]; application rate 320 g/ha): 100%; pre-emergence activity against DIGSA (DIGSA [9]; application rate 1280 g/ha): 100%; post-emergence activity against ABUTH (ABUTH [29]): 90%; post-emergence activity against LOLRI (LOLRI [30]): 90%; post-emergence activity against MATIN (MATIN [31]): 90%; post-emergence activity against POAAN (POAAN [32]): 90%; post-emergence activity against VERPE (VERPE [33]): 90%; pre-emergence activity against DIGSA (DIGSA [15]; application rate 320 g/ha): 100%; pre-emergence activity against POLCO (POLCO): 90%; pre-emergence activity against VERPE (VERPE [20]; application rate 80 g/ha): 90%; pre-emergence activity against ZEAMX (ZEAMX [22]; application rate 320 g/ha): 0%; pre-emergence activity against TRZAS (TRZAS [34]): 10%; post-emergence activity against ECHCG (ECHCG [35]): 80%; post-emergence activity against VERPE (VERPE [36]): 80% |
